Laboratory results reported in the NIST ThermoML archive (doi:10.1021/je060271a).

Conditions: 283.15 K, Liquid, Vibrating tube method

CCCCCC(=O)OCC(COC(=O)CCCCC)(COC(=O)CCCCC)COC(=O)CCCCC [pentaerythritol tetrahexanoate]
Conditions | mass density [kg/m3]
219.9 kPa | 1004.3
220.4 kPa | 1004.3
221.1 kPa | 1004.3
221.3 kPa | 1004.1
222 kPa | 1004.2
222.5 kPa | 1004.3
223.2 kPa | 1004.1
223.5 kPa | 1004.4
224.1 kPa | 1004.3
227.9 kPa | 1004.2
228.4 kPa | 1004.2
228.8 kPa | 1004.2
229.3 kPa | 1004.3
230 kPa | 1004.2
230.8 kPa | 1004.4
231.2 kPa | 1004.2
232.1 kPa | 1004.3
232.4 kPa | 1004.2
233.4 kPa | 1004.2
233.6 kPa | 1004.3
234.8 kPa | 1004.1
236 kPa | 1004.3
237.6 kPa | 1004.4
238.1 kPa | 1004.2
238.8 kPa | 1004.2
239.2 kPa | 1004.3
239.9 kPa | 1004.3
240.7 kPa | 1004.2
241.4 kPa | 1004.3
242 kPa | 1004.4
242.8 kPa | 1004.3
243.5 kPa | 1004.3
243.9 kPa | 1004.3
244.9 kPa | 1004.3
245.6 kPa | 1004.1
246.3 kPa | 1004.3
247 kPa | 1004.3
247.7 kPa | 1004.3
248.6 kPa | 1004.3
249.6 kPa | 1004.1
249.9 kPa | 1004.2
250.5 kPa | 1004.3
251.5 kPa | 1004.3
251.9 kPa | 1004.3
252.2 kPa | 1004.3
252.7 kPa | 1004.2
253.4 kPa | 1004.3
254.6 kPa | 1004.3
255.2 kPa | 1004.3
256 kPa | 1004.3
256.9 kPa | 1004.2
257.8 kPa | 1004.4
258.6 kPa | 1004.3
259.7 kPa | 1004.3
260.5 kPa | 1004.3
261.2 kPa | 1004.3
261.9 kPa | 1004.2
262.8 kPa | 1004.2
263.5 kPa | 1004.4
264.5 kPa | 1004.2
265.2 kPa | 1004.2
266.4 kPa | 1004.3
267 kPa | 1004.3
267.8 kPa | 1004.2
269.1 kPa | 1004.3
269.8 kPa | 1004.3
270.8 kPa | 1004.3
271.7 kPa | 1004.3
272.5 kPa | 1004.3
273.4 kPa | 1004.3
274.4 kPa | 1004.2
275.3 kPa | 1004.2
276.4 kPa | 1004.3
277.6 kPa | 1004.4
278.1 kPa | 1004.2
279.1 kPa | 1004.3
280.5 kPa | 1004.2
281.2 kPa | 1004.2
282.6 kPa | 1004.3
283.7 kPa | 1004.3
284.3 kPa | 1004.2
285.7 kPa | 1004.3
286.8 kPa | 1004.3
287.6 kPa | 1004.2
288.9 kPa | 1004.2
289.6 kPa | 1004.4
290.8 kPa | 1004.3
291.8 kPa | 1004.2
292.9 kPa | 1004.3
294.1 kPa | 1004.4
295.1 kPa | 1004.3
296.5 kPa | 1004.2
297.4 kPa | 1004.2
298.6 kPa | 1004.1
299.8 kPa | 1004.2
300.9 kPa | 1004.3
301.9 kPa | 1004.3
303.3 kPa | 1004.4
304.3 kPa | 1004.4
305.5 kPa | 1004.3
306.8 kPa | 1004.2
308 kPa | 1004.4
309.4 kPa | 1004.3
310.6 kPa | 1004.3
311.5 kPa | 1004.3
313 kPa | 1004.3
314.1 kPa | 1004.2
315.6 kPa | 1004.3
317.2 kPa | 1004.3
318.8 kPa | 1004.2
320.5 kPa | 1004.3
322.2 kPa | 1004.3
324 kPa | 1004.3
325.2 kPa | 1004.3
326.4 kPa | 1004.3
328.3 kPa | 1004.2
329.5 kPa | 1004.3
331.8 kPa | 1004.2
333.3 kPa | 1004.3
335.1 kPa | 1004.4
336.8 kPa | 1004.3
338.4 kPa | 1004.3
340.1 kPa | 1004.3
341.9 kPa | 1004.3
343.1 kPa | 1004.3
344.6 kPa | 1004.3
346.7 kPa | 1004.4
348.1 kPa | 1004.4
349.2 kPa | 1004.4
350.2 kPa | 1004.3
351.1 kPa | 1004.4
352.6 kPa | 1004.4
354.7 kPa | 1004.4
355.6 kPa | 1004.3
357.2 kPa | 1004.4
358.9 kPa | 1004.3
367.6 kPa | 1004.3
369.3 kPa | 1004.4
371.3 kPa | 1004.5
373.2 kPa | 1004.2
375.4 kPa | 1004.3
377.5 kPa | 1004.3
379.4 kPa | 1004.4
381.5 kPa | 1004.4
383.6 kPa | 1004.5
385.7 kPa | 1004.2
387.9 kPa | 1004.3
390 kPa | 1004.4
391.9 kPa | 1004.3
394 kPa | 1004.4
396.6 kPa | 1004.3
398.4 kPa | 1004.4
401 kPa | 1004.4
413.1 kPa | 1004.4
415.2 kPa | 1004.3
417.8 kPa | 1004.3
420.6 kPa | 1004.3
423.2 kPa | 1004.4
425.6 kPa | 1004.3
428.4 kPa | 1004.4
430.9 kPa | 1004.5
434 kPa | 1004.4
436.2 kPa | 1004.5
442.3 kPa | 1004.4
444.9 kPa | 1004.4
448.1 kPa | 1004.4
450.8 kPa | 1004.4
453.4 kPa | 1004.4
456.8 kPa | 1004.4
459.7 kPa | 1004.4
462.7 kPa | 1004.4
466 kPa | 1004.4
469.4 kPa | 1004.4
472.6 kPa | 1004.4
476 kPa | 1004.3
479.5 kPa | 1004.3
482.8 kPa | 1004.4
486 kPa | 1004.4
489.8 kPa | 1004.3
493.6 kPa | 1004.3
496.7 kPa | 1004.5
512 kPa | 1004.5
515.7 kPa | 1004.4
519.1 kPa | 1004.5
523.7 kPa | 1004.3
527.3 kPa | 1004.5
531.3 kPa | 1004.4
535.3 kPa | 1004.4
540.3 kPa | 1004.4
544 kPa | 1004.4
548.5 kPa | 1004.5
553 kPa | 1004.5
557 kPa | 1004.5
561.4 kPa | 1004.4
566.4 kPa | 1004.3
571.4 kPa | 1004.5
576.3 kPa | 1004.4
580.5 kPa | 1004.5
585.3 kPa | 1004.4
590.2 kPa | 1004.5
595.8 kPa | 1004.5
600.1 kPa | 1004.5
604.8 kPa | 1004.6
611.2 kPa | 1004.5
616.8 kPa | 1004.5
621.8 kPa | 1004.6
627.7 kPa | 1004.6
633.3 kPa | 1004.5
638.7 kPa | 1004.5
644.2 kPa | 1004.5
650.7 kPa | 1004.4
657.1 kPa | 1004.4
676 kPa | 1004.5
681.9 kPa | 1004.5
688 kPa | 1004.5
694.4 kPa | 1004.5
700.5 kPa | 1004.5
707.3 kPa | 1004.7
714.2 kPa | 1004.5
720.3 kPa | 1004.5
728 kPa | 1004.5
734.6 kPa | 1004.6
742.2 kPa | 1004.6
749.5 kPa | 1004.6
756.6 kPa | 1004.6
763.9 kPa | 1004.6
771.1 kPa | 1004.5
780.4 kPa | 1004.7
787.7 kPa | 1004.6
796.1 kPa | 1004.5
803.7 kPa | 1004.6
821.4 kPa | 1004.6
829.9 kPa | 1004.6
840 kPa | 1004.6
848.9 kPa | 1004.6
857.7 kPa | 1004.6
866.4 kPa | 1004.7
877.2 kPa | 1004.7
886.2 kPa | 1004.6
895.6 kPa | 1004.7
905.1 kPa | 1004.6
916.6 kPa | 1004.8
926.7 kPa | 1004.6
936.4 kPa | 1004.6
948.2 kPa | 1004.6
958.6 kPa | 1004.7
969.1 kPa | 1004.8
979.3 kPa | 1004.6
989.7 kPa | 1004.8
1001.9 kPa | 1004.8
1012 kPa | 1004.7
1024.5 kPa | 1004.7
1035.1 kPa | 1004.8
1045.3 kPa | 1004.6
1055.6 kPa | 1004.8
1066.1 kPa | 1004.7
1078.8 kPa | 1004.6
1089.1 kPa | 1004.8
1099.8 kPa | 1004.8
1113 kPa | 1004.8
1123.6 kPa | 1004.9
1134.7 kPa | 1004.8
1147.6 kPa | 1004.7
1158.7 kPa | 1004.7
1170 kPa | 1004.8
1183.6 kPa | 1004.9
1194.7 kPa | 1004.7
1206.3 kPa | 1004.9
1218.1 kPa | 1004.8
1229.9 kPa | 1004.9
1241.6 kPa | 1004.9
1258.7 kPa | 1005
1270.9 kPa | 1004.9
1283.6 kPa | 1004.8
1298.2 kPa | 1004.8
1310.3 kPa | 1004.8
1322.8 kPa | 1004.8
1338.1 kPa | 1004.9
1351.5 kPa | 1004.8
1364.1 kPa | 1004.9
1377 kPa | 1004.9
1393.1 kPa | 1004.8
1406.3 kPa | 1005
1420 kPa | 1004.9
1433.4 kPa | 1005
1449.5 kPa | 1005
1462.7 kPa | 1005
1476.5 kPa | 1004.8
1492.4 kPa | 1005
